Source: PMC9144402, “An Octopus-Derived Peptide with Antidiuretic Activity in Rats” (Marine Drugs, 2022)

Columns and labels:
[1] = biological target: T1, human V1aR (Homo sapiens, UniProt P37288); experiment: V1aR functional assay, antagonist effect (10 nM AVP-induced intracellular Ca^2+, fluorimetry, CHO cells); type: cell-based; conditions: all concentrations tested; CHO; stimulant 10 nM AVP; RT; fluorimetry; triplicate
T1 construct: host or cells: CHO
Experimental: (§1) Detailed information about the cells tested and other experimental conditions are described in Table 2. Briefly, cells were transfected with a recombinant expression vector capable of expressing each type of human OXT/AVP receptor. To evaluate the agonist effects on OXTR, V1aR, and V1bR, the intracellular Ca^2+ increase after treatment with OTP or CPT was measured by fluorimetry. […] For V2R receptors, cells were treated with peptides with or without the stimulant for 30 min. After that, cyclic AMP (cAMP) concentrations were measured by homogeneous time-resolved fluorescence (HTRF). The results were represented as the percent submaximal response achieved by the stimulant. All experiments were performed in triplicate. Data are presented as the mean ± standard error of the mean. The 50% effective concentration (EC50) and 50% inhibitory concentration (IC50) values were determined using a 4-parameter logistic fitting of a dose–response curve using SigmaPlot 10.0 (Systat Software, Palo Alto, CA, USA).

[2] = biological target: T1, human V1aR; experiment: V1aR functional assay, agonist effect (intracellular Ca^2+ increase, fluorimetry, CHO cells); type: cell-based; conditions: up to 50 μM, RT, % of control response (1 µM AVP), triplicate
Experimental: as §1

[3] = tested on: oviduct, aorta, and rectum; conditions: in vitro preparations of oviduct, ref [18]; cited from earlier work
Excerpt: (§2) These genes produce active nonapeptides, which are named octopressin (OTP) and cephalotocin (CPT). […] OTP was also reported to evoke hyperactivity in chromatophore cells, ra ...

[4] = tested on: O. ocellatus; conditions: ref [21]; cited from earlier work
Excerpt: as §2

[5] = tested on: Octopus vulgaris; conditions: same species (Octopus vulgaris); ref [20]; cited from earlier work
Excerpt: as §2

[6] = tested on: common cuttlefish (Sepia officinalis); conditions: ref [22]; cited from earlier work
Excerpt: as §2

[7] = biological target: T2, human V1bR (Homo sapiens, UniProt P47901); experiment: V1bR functional assay, agonist effect (intracellular Ca^2+ increase, fluorimetry, RBL cells); type: cell-based; conditions: up to 50 μM; RBL; RT; fluorimetry; % of control response (0.1 µM AVP); triplicate
T2 construct: host or cells: RBL
T2 sequence (P47901 1-424): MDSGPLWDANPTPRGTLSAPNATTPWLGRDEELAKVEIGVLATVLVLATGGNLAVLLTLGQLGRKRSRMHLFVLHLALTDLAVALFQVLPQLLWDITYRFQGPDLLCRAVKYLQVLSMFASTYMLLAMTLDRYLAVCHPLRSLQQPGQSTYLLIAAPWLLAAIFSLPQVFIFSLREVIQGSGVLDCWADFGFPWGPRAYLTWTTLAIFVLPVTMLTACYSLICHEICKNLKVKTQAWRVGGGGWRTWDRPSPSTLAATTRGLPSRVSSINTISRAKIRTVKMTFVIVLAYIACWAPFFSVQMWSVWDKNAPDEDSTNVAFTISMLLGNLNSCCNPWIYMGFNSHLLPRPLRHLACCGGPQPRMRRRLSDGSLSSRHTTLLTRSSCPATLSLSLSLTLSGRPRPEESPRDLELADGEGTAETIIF
Experimental: as §1

[8] = biological target: T3, human OXTR (Homo sapiens, UniProt P30559); experiment: OXTR functional assay, antagonist effect (30 nM OXT-induced intracellular Ca^2+, fluorimetry, ECV304 cells); type: cell-based; conditions: 50 μM; ECV304; stimulant 30 nM OXT; RT; fluorimetry; triplicate
T3 construct: host or cells: ECV304
T3 sequence (P30559 1-389): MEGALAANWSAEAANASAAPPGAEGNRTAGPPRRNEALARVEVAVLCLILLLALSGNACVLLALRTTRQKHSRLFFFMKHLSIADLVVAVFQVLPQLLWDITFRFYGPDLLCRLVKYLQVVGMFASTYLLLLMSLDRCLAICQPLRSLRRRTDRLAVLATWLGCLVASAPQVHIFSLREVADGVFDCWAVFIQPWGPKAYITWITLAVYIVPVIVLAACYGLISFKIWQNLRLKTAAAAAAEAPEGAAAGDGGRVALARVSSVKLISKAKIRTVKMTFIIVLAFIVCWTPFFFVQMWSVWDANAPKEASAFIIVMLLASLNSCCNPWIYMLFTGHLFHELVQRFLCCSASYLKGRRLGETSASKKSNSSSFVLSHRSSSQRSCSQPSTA
Experimental: as §1

[9] = biological target: T3, human OXTR; experiment: OXTR functional assay, agonist effect (intracellular Ca^2+ increase, fluorimetry, transfected ECV304 cells); type: cell-based; conditions: up to 50 μM, RT, % of control response (1 µM OXT), triplicate
Experimental: as §1

[10] = biological target: T2, human V1bR; experiment: V1bR functional assay, antagonist effect (5 nM AVP-induced intracellular Ca^2+, fluorimetry, RBL cells); type: cell-based; conditions: all concentrations tested, stimulant 5 nM AVP, RT, triplicate
Experimental: as §1

[11] = biological target: T4, human V2R (Homo sapiens, UniProt P30518); experiment: V2R functional assay, agonist effect (cAMP accumulation, HTRF, CHO cells); type: cell-based; conditions: 50 μM; CHO; 30 min RT; HTRF; % of control response (1 nM AVP); triplicate
T4 construct: host or cells: CHO
Experimental: as §1

[12] = biological target: T4, human V2R; experiment: V2R functional assay, antagonist effect (0.03 nM AVP-induced cAMP, HTRF, CHO cells); type: cell-based; conditions: all concentrations tested, stimulant 0.03 nM AVP, 30 min RT, triplicate
Experimental: as §1

T1 sequence (P37288 whole entry): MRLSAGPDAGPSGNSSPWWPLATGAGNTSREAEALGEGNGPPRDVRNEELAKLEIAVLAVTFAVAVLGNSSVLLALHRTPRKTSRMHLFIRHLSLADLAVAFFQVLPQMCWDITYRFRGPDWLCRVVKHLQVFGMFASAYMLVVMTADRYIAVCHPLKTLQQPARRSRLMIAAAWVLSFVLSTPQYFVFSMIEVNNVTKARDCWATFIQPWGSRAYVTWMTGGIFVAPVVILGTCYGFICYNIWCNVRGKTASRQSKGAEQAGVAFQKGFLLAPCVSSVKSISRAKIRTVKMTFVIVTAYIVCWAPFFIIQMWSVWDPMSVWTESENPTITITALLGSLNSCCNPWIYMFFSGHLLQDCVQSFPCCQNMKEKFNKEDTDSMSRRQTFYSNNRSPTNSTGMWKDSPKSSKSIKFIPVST

CYWTSCPIG-NH2 (disulfide bond) (disulfide) [OTP, octopressin, natural OXT/AVP analog from Octopus vulgaris, synthesized by solid-phase peptide synthesis]
antagonist effect against V1aR activation [1]: could not inhibit
V1aR-mediated intracellular Ca^2+ increase (agonist effect) [2]: did not seem to induce
effect on peripheral tissues [3]: induced contractions
hemolymph osmolality [4]: decreases hemolymph osmolality
behavioral effect [5]: hyperactivity in chromatophore cells, rapid respiration, and jetting water from the siphon
effect on long-term memory [6]: affect long-term memory
V1bR-mediated intracellular Ca^2+ increase (agonist effect) [7]: did not seem to induce
inhibition rate of OXTR activation [8]: approximately 30%
OXTR-mediated intracellular Ca^2+ increase (agonist effect) [9]: did not seem to induce
antagonist effect against V1bR activation [10]: could not inhibit
V2R-mediated cAMP accumulation (agonist effect) [11]: < 30%
antagonist effect against V2R activation [12]: could not inhibit
